In patent publication US20230293407A1, “Compositions Comprising (Bio)-Alkanediols with Antimicrobials for Product Protection” (Symrise AG, priority 2020, published 2023):
Like-named read-outs stand apart in the source and are kept apart here.

Columns and labels:
[1] = maximum water solubility of alkanediols, visual observation; type: physicochemical; conditions: ambient temperature after 24 h storage at 5° C.
Excerpt: The water solubility of a substance is the saturation mass concentration of the substance in water at a given temperature. The determination of the solubility in water relates to essentially pure substances which are stable in water and not volatile. The determination of the water solubility of the alkanediols is further described in the following Example 2.
For the determination of the maximum water solubility of an alkanediol, water and different concentrations of the respective alkanediol were blended by stirring. […] The determination of whether the alkanediol has dissolved in water is based entirely on visual observation.

Pseudomonas aeruginosa = assay: preservation efficacy test (PET), European Pharmacopoeia 5.1.3; type: cell-based; conditions: for PA germ count, 2 days / PA germ count, 7 days / PA germ count, 14 days / PA germ count, 28 days: substance at given % in test formulation
Staphylococcus aureus = assay: as above; type: cell-based
Escherichia coli = assay: as above; type: cell-based; conditions: for EC germ count, 2 days / EC germ count, 7 days / EC germ count, 14 days / EC germ count, 28 days: substance at given % in test formulation
Candida albicans = assay: as above; type: cell-based; conditions: for CA germ count, 2 days / CA germ count, 7 days / CA germ count, 14 days / CA germ count, 28 days: substance at given % in test formulation
Aspergillus brasiliensis = assay: as above; type: cell-based
[2] = PA, 2 days after inoculation, use concentration in label
[3] = PA, 7 days after inoculation, use concentration in label
[4] = PA, 14 days after inoculation, use concentration in label
[5] = PA, 28 days after inoculation, use concentration in label
[6] = SA, 2 days after inoculation, use concentration in label
[7] = SA, 7 days after inoculation, use concentration in label
[8] = SA, 14 days after inoculation, use concentration in label
[9] = SA, 28 days after inoculation, use concentration in label
[10] = EC, 2 days after inoculation, use concentration in label
[11] = EC, 7 days after inoculation, use concentration in label
[12] = EC, 14 days after inoculation, use concentration in label
[13] = EC, 28 days after inoculation, use concentration in label
[14] = CA, 7 days after inoculation, use concentration in label
[15] = CA, 14 days after inoculation, use concentration in label
[16] = CA, 28 days after inoculation, use concentration in label
[17] = AB, 28 days after inoculation, use concentration in label
[18] = AB, 2 days after inoculation, use concentration in label
[19] = AB, 7 days after inoculation, use concentration in label
[20] = AB, 14 days after inoculation, use concentration in label
[21] = 7 days after inoculation, substance at given % in test formulation
[22] = 14 days after inoculation, substance at given % in test formulation
[23] = 28 days after inoculation, substance at given % in test formulation
[24] = 2 days after inoculation, substance at given % in test formulation

CCCC(O)CO (stereo not drawn) [Hydrolite ® 5 green]
Maximum solubility in water [1]: 50 % by weight

CCCCC(O)CO (stereo not drawn) [Hydrolite ® 6]
Maximum solubility in water [1]: 50 % by weight

CCCCCCC(O)CO (stereo not drawn) [Hydrolite ® 8]
Maximum solubility in water [1]: 0.5 % by weight

CC(=O)CCc1ccc(OCCO)cc1 [0.4% Hydroxyethoxyphenyl Butanone]
count at 2 days (Pseudomonas aeruginosa; [2]): 1 | count at 7 days (Pseudomonas aeruginosa; [3]): 1 | count at 14 days (Pseudomonas aeruginosa; [4]): 1 | count at 28 days (Pseudomonas aeruginosa; [5]): 1 | count at 2 days (Staphylococcus aureus; [6]): 39.000 | count at 7 days (Staphylococcus aureus; [7]): 1 | count at 14 days (Staphylococcus aureus; [8]): 1 | count at 28 days (Staphylococcus aureus; [9]): 1 | count at 2 days (Escherichia coli; [10]): 200 | count at 7 days (Escherichia coli; [11]): 1 | count at 14 days (Escherichia coli; [12]): 1 | count at 28 days (Escherichia coli; [13]): 1 | count at 2 days (Candida albicans; CA, 2 days after inoculation, use concentration in label): 95.000 | count at 7 days (Candida albicans; [14]): 1 | count at 14 days (Candida albicans; [15]): 490 | count at 28 days (Candida albicans; [16]): 450 | count at 28 days (Aspergillus brasiliensis; [17]): 810.000

OCCCO [0.8% 1,3-propanediol]
count at 2 days (Pseudomonas aeruginosa; [2]): 290 | count at 7 days (Pseudomonas aeruginosa; [3]): 200 | count at 14 days (Pseudomonas aeruginosa; [4]): 180 | count at 28 days (Pseudomonas aeruginosa; [5]): 1 | count at 2 days (Staphylococcus aureus; [6]): 180.000 | count at 7 days (Staphylococcus aureus; [7]): 58.000 | count at 14 days (Staphylococcus aureus; [8]): 820 | count at 28 days (Staphylococcus aureus; [9]): 1 | count at 2 days (Escherichia coli; [10]): 350.000 | count at 7 days (Escherichia coli; [11]): 74.000 | count at 14 days (Escherichia coli; [12]): 4.100 | count at 28 days (Escherichia coli; [13]): 1 | count at 7 days (Candida albicans; [14]): 650.000 | count at 14 days (Candida albicans; [15]): 630.000 | count at 28 days (Candida albicans; [16]): 1 | count at 2 days (Aspergillus brasiliensis; [18]): 900.000 | count at 7 days (Aspergillus brasiliensis; [19]): 650.000 | count at 14 days (Aspergillus brasiliensis; [20]): 270.000 | count at 28 days (Aspergillus brasiliensis; [17]): 380

COc1ccc(C(=O)O)cc1 [anisic acid, reference compound]
number of microorganisms, 2 days (Pseudomonas aeruginosa; PET, Pseudomonas aeruginosa (PA), 2 days after inoculation): 1 | number of microorganisms, 7 days (Pseudomonas aeruginosa; PET, Pseudomonas aeruginosa (PA), 7 days after inoculation): 1 | number of microorganisms, 14 days (Pseudomonas aeruginosa; PET, Pseudomonas aeruginosa (PA), 14 days after inoculation): 1 | number of microorganisms, 28 days (Pseudomonas aeruginosa; PET, Pseudomonas aeruginosa (PA), 28 days after inoculation): 1 | number of microorganisms, 2 days (Staphylococcus aureus; PET, Staphylococcus aureus (SA), 2 days after inoculation): 1 | number of microorganisms, 7 days (Staphylococcus aureus; PET, Staphylococcus aureus (SA), 7 days after inoculation): 1 | number of microorganisms, 14 days (Staphylococcus aureus; PET, Staphylococcus aureus (SA), 14 days after inoculation): 1 | number of microorganisms, 28 days (Staphylococcus aureus; PET, Staphylococcus aureus (SA), 28 days after inoculation): 1 | number of microorganisms, 2 days (Escherichia coli; PET, Escherichia coli (EC), 2 days after inoculation): 1 | number of microorganisms, 7 days (Escherichia coli; PET, Escherichia coli (EC), 7 days after inoculation): 1 | number of microorganisms, 14 days (Escherichia coli; PET, Escherichia coli (EC), 14 days after inoculation): 1 | number of microorganisms, 28 days (Escherichia coli; PET, Escherichia coli (EC), 28 days after inoculation): 1 | number of microorganisms, 2 days (Candida albicans; PET, Candida albicans (CA), 2 days after inoculation): 7.000 | number of microorganisms, 7 days (Candida albicans; PET, Candida albicans (CA), 7 days after inoculation): 9.000 | number of microorganisms, 14 days (Candida albicans; PET, Candida albicans (CA), 14 days after inoculation): 1 | number of microorganisms, 28 days (Candida albicans; PET, Candida albicans (CA), 28 days after inoculation): 1 | number of microorganisms, 2 days (Aspergillus brasiliensis; PET, Aspergillus brasiliensis (AB), 2 days after inoculation): 650.000 | number of microorganisms, 7 days (Aspergillus brasiliensis; PET, Aspergillus brasiliensis (AB), 7 days after inoculation): 360.000 | number of microorganisms, 14 days (Aspergillus brasiliensis; PET, Aspergillus brasiliensis (AB), 14 days after inoculation): 1 | number of microorganisms, 28 days (Aspergillus brasiliensis; PET, Aspergillus brasiliensis (AB), 28 days after inoculation): 1

CCOC(=O)c1ccc(O)cc1 [0.1% Ethylparaben]
PA germ count, 2 days (Pseudomonas aeruginosa; 2 days after inoculation): 1 | PA germ count, 7 days (Pseudomonas aeruginosa; 7 days after inoculation): 1 | PA germ count, 14 days (Pseudomonas aeruginosa; 14 days after inoculation): 1 | PA germ count, 28 days (Pseudomonas aeruginosa; 28 days after inoculation): 1 | SA germ count, 7 days (Staphylococcus aureus; [21]): 38.000 | SA germ count, 14 days (Staphylococcus aureus; [22]): 1 | SA germ count, 28 days (Staphylococcus aureus; [23]): 1 | EC germ count, 2 days (Escherichia coli; 2 days after inoculation): 440.000 | EC germ count, 7 days (Escherichia coli; 7 days after inoculation): 62.000 | EC germ count, 14 days (Escherichia coli; 14 days after inoculation): 280 | EC germ count, 28 days (Escherichia coli; 28 days after inoculation): 390 | CA germ count, 2 days (Candida albicans; 2 days after inoculation): 380.000 | CA germ count, 7 days (Candida albicans; 7 days after inoculation): 200.000 | CA germ count, 14 days (Candida albicans; 14 days after inoculation): 170.000 | CA germ count, 28 days (Candida albicans; 28 days after inoculation): 260.000 | AB germ count, 7 days (Aspergillus brasiliensis; [21]): 630.000 | AB germ count, 14 days (Aspergillus brasiliensis; [22]): 800.000 | AB germ count, 28 days (Aspergillus brasiliensis; [23]): 730.000

O=C([O-])CN(CCN(CC(=O)O)CC(=O)O)CC(=O)[O-].[Na+].[Na+] [0.2 % Disodium EDTA]
count at 2 days (Pseudomonas aeruginosa; [2]): 1 | count at 7 days (Pseudomonas aeruginosa; [3]): 1 | count at 14 days (Pseudomonas aeruginosa; [4]): 1 | count at 28 days (Pseudomonas aeruginosa; [5]): 1 | count at 2 days (Staphylococcus aureus; [6]): 530.000 | count at 7 days (Staphylococcus aureus; [7]): 49.000 | count at 14 days (Staphylococcus aureus; [8]): 49.000 | count at 28 days (Staphylococcus aureus; [9]): 2.500 | count at 2 days (Escherichia coli; [10]): 330.000 | count at 7 days (Escherichia coli; [11]): 85.000 | count at 14 days (Escherichia coli; [12]): 85.000 | count at 28 days (Escherichia coli; [13]): 1.800 | count at 28 days (Candida albicans; [16]): 810.000 | count at 2 days (Aspergillus brasiliensis; [18]): 990.000 | count at 7 days (Aspergillus brasiliensis; [19]): 590.000 | count at 14 days (Aspergillus brasiliensis; [20]): 590.000 | count at 28 days (Aspergillus brasiliensis; [17]): 330.000

O=C([O-])c1ccccc1.[Na+] [0.2% Sodium Benzoate]
count at 2 days (Pseudomonas aeruginosa): 1 | count at 7 days (Pseudomonas aeruginosa): 1 | count at 14 days (Pseudomonas aeruginosa): 1 | count at 28 days (Pseudomonas aeruginosa): 1 | count at 2 days (Staphylococcus aureus): 320.000 | count at 7 days (Staphylococcus aureus): 74.000 | count at 14 days (Staphylococcus aureus): 1 | count at 28 days (Staphylococcus aureus): 1 | count at 2 days (Escherichia coli): 130.000 | count at 7 days (Escherichia coli): 11.000 | count at 14 days (Escherichia coli): 1 | count at 28 days (Escherichia coli): 1 | count at 7 days (Candida albicans): 250.000 | count at 28 days (Candida albicans): 1 | count at 2 days (Aspergillus brasiliensis): 760.000 | count at 7 days (Aspergillus brasiliensis): 880.000 | count at 14 days (Aspergillus brasiliensis): 200.000 | count at 28 days (Aspergillus brasiliensis): 230.000

CC(C)=CCC[C@](C)(O)[C@@H]1CC=C(C)CC1 [0.3% Dragosantol 100]
PA germ count, 2 days (Pseudomonas aeruginosa; 2 days after inoculation): 1 | PA germ count, 7 days (Pseudomonas aeruginosa; 7 days after inoculation): 1 | PA germ count, 14 days (Pseudomonas aeruginosa; 14 days after inoculation): 1 | PA germ count, 28 days (Pseudomonas aeruginosa; 28 days after inoculation): 1 | SA germ count, 2 days (Staphylococcus aureus; [24]): 370.000 | SA germ count, 7 days (Staphylococcus aureus; [21]): 290 | SA germ count, 14 days (Staphylococcus aureus; [22]): 1 | SA germ count, 28 days (Staphylococcus aureus; [23]): 1 | EC germ count, 2 days (Escherichia coli; 2 days after inoculation): 120.000 | EC germ count, 7 days (Escherichia coli; 7 days after inoculation): 200 | EC germ count, 14 days (Escherichia coli; 14 days after inoculation): 1 | EC germ count, 28 days (Escherichia coli; 28 days after inoculation): 1 | CA germ count, 2 days (Candida albicans; 2 days after inoculation): 800.000 | CA germ count, 7 days (Candida albicans; 7 days after inoculation): 920.000 | CA germ count, 14 days (Candida albicans; 14 days after inoculation): 28.000 | CA germ count, 28 days (Candida albicans; 28 days after inoculation): 58.000 | AB germ count, 7 days (Aspergillus brasiliensis; [21]): 880.000 | AB germ count, 14 days (Aspergillus brasiliensis; [22]): 620.000 | AB germ count, 28 days (Aspergillus brasiliensis; [23]): 660.000

COC(=O)c1ccc(O)cc1 [0.1% Methylparaben]
PA germ count, 2 days (Pseudomonas aeruginosa; 2 days after inoculation): 1 | PA germ count, 7 days (Pseudomonas aeruginosa; 7 days after inoculation): 1 | PA germ count, 14 days (Pseudomonas aeruginosa; 14 days after inoculation): 1 | PA germ count, 28 days (Pseudomonas aeruginosa; 28 days after inoculation): 1 | SA germ count, 7 days (Staphylococcus aureus; [21]): 6.100 | SA germ count, 14 days (Staphylococcus aureus; [22]): 140 | SA germ count, 28 days (Staphylococcus aureus; [23]): 1 | EC germ count, 2 days (Escherichia coli; 2 days after inoculation): 680.000 | EC germ count, 7 days (Escherichia coli; 7 days after inoculation): 18.000 | EC germ count, 14 days (Escherichia coli; 14 days after inoculation): 45 | EC germ count, 28 days (Escherichia coli; 28 days after inoculation): 1 | CA germ count, 2 days (Candida albicans; 2 days after inoculation): 100.000 | CA germ count, 7 days (Candida albicans; 7 days after inoculation): 210.000 | CA germ count, 14 days (Candida albicans; 14 days after inoculation): 85.000 | CA germ count, 28 days (Candida albicans; 28 days after inoculation): 11.000 | AB germ count, 2 days (Aspergillus brasiliensis; [24]): 300.000 | AB germ count, 7 days (Aspergillus brasiliensis; [21]): 690.000 | AB germ count, 14 days (Aspergillus brasiliensis; [22]): 300.000 | AB germ count, 28 days (Aspergillus brasiliensis; [23]): 240.000
